We go through one compound from patent US11214567B2, “Small molecule inhibitors of MYC and uses thereof” (The Regents of the University of Michigan, priority 2017, dated 2022).

This experiment relates to C-MYC. Kind of experiment: Western blotting of C-MYC protein levels in cancer cells. Format: cell-based, human. As for the experimental part:
Cells (5×10^5) were cultured in 6-well plate and treated with KJA03 at designated concentrations. After treatment, cells were lysed with cell lysis buffer on ice at 4° C., sonicated for 3 min, centrifuged (12,000 rpm, 10 min, 4° C.) and then, the supernatant was collected. Protein concentrations of supernatants were evaluated with BCA assay. Proteins were resolved in 10% SDS/PAGE and electrotransferred to Immun-Blot PVDF membrane (Bio-Rad). After blocking with 5% milk in TBST (Tris-buffered saline with 0.1% Tween 20), membranes were probed with primary antibodies (anti-PARP, anti-caspase 3 and anti-GAPDH) 1:1000 dilutions overnight at 4° C. Membranes were then washed with TBST (5 min×3), incubated with Dylight 800-conjugated secondary antibodies 1:7500 dilutions in 5% milk for 1 h at room temperature, and washed with TBST (5 min×3). Fluorescent signal was then scanned by Odyssey Imaging Systems (LI-COR Biosciences).
The effect of KJA03 on the MYC protein levels, including C-MYC and N-MYC, NCI/ADR-RES cells were treated with KJA03 at concentration of 0.1 (half IC50) and 0.2 (IC50) μM for 24 and 48 h. […] It has previously been reported that JQ1 treatment leads to down-regulation of c-MYC protein levels in osteosarcoma, leukemia and lymphoma cells (see, e.g., Mertz, J. A.; et al., Proceedings of the National Academy of Sciences 2011, 108, 16669-16674).
Experiments were conducted to further repeat the experiment and JQ1 was chosen as a positive control. As expected, expression of C-MYC was reduced by KJA03 at 24 h of treatment, correlated with previous experiment (FIG. 3).
Experiments were conducted that further performed a time-course experiment to evaluate C-MYC suppression including 2, 6, 8 24 and 48 h at concentration of 0.2 μM. To define the specificity of MYC suppression in further detail, we treated cells with a range of compound concentrations at 24 h. […] To determine whether KJA03 can suppress C-MYC in different cell lines, we next investigated the level of C-MYC in response to treatment with KJA03 at 0.2 μM using other three different OVCAR8, MIA PaCa-2 and Panc-1 cell lines.

“Also recorded” adds a separate entry of the source.

For the compound `Cc1ccc(-c2noc(-c3ccccc3-n3c(-c4ccc(C)cc4)noc3=O)n2)cc1` [KJA03, 3-(P-tolyl)-4-(2-(3-(p-tolyl)-1,2,4-oxadiazol-5-yl)phenyl)-1,2,4-oxadiazol-5(4H)-one], the “MYC suppression, ovarian versus pancreatic cancer cells” value (0.2 μM, OVCAR8, NCI/ADR-RES, MIA PaCa-2 and Panc-1) is “suppresses MYC strongly in ovarian cancer cells”. Where the note is “0.1 (half IC50) and 0.2 (IC50) μM at 24 and 48 h”, the MYC protein levels result was “significantly reduce MYC protein levels”. Also, the “C-MYC protein levels, range of concentrations” value reads like this: (MiaPaca-2) “down-regulated dose-dependently”; (NCI/ADR-RES, 24 h) “decreased levels of C-MYC in a dose-dependent manner; also recorded: down-regulated dose-dependently”; (OVCAR8) “down-regulated dose-dependently”; (Pac-1) “down-regulated dose-dependently”. For the same compound, for the setting “NCI/ADR-RES cells, 0.2 μM, 24 h”, the C-MYC protein levels entry is reported as “reduced C-MYC levels; also recorded: efficiently decrease the C-MYC protein levels”. Moreover, where the note is “NCI/ADR-RES, 0.2 μM, 2, 6, 8, 24 and 48 h”, the “C-MYC suppression, time-course” value is given as “significantly suppressed only at 24 h”.
